Laboratory results published in US9028870B2, “Hydrogel-driven drug dosage form” (Bend Research, Inc., priority 1999, dated 2015).
Values after ≈ are worked out from the molar mass of the structure shown. Values belong to the compound of their own block, whether it stands above or below them.

Legend:
[1] = aqueous solubility as stated for drugs and organic acids

Compound: O=C1Cc2cc(CCN3CCN(c4nsc5ccccc45)CC3)c(Cl)cc2N1 [Drug 5]
solubility ([1]; model fasted duodenal solution): 3 µg/mL (≈ 7.26 µM)

Compound: 4-[3-[4-(2-methylimidazol-1-yl)phenylthio]phenyl]-3,4,5,6-tetrahydro-2H-pyran-4-carboxamide hemifumarate [Drug 3]
solubility ([1]; pH 4): 3.7 mgA/mL

Compound: CCCc1nn(C)c2c(=O)[nH]c(-c3cc(S(=O)(=O)N4CCN(C)CC4)ccc3OCC)nc12 [Drug 1, 1-[4-ethoxy-3-(6,7-dihydro-1-methyl-7-oxo-3-propyl-1H-pyrazolo[4,3-d]pyrimidin-5-yl)phenylsulphony]-4-methylpiperazine]
solubility ([1]; pH 6, aqueous buffer): ~20 µg/mL (≈ 42.1 µM)

Other lines, results leading:

water solubility ([1]; water): 80 µg/mL (≈ 175 µM)
Compound: O=C(N[C@@H](Cc1ccccc1)[C@@H](O)C(=O)N1C[C@@H](O)[C@@H](O)C1)c1cc2cc(Cl)ccc2[nH]1 [Drug 4, 5-chloro-1H-indole-2-carboxylic acid [(1S)-benzyl-3-((3R,4S)-dihydroxypyrrolidin-1-yl-)-(2R)-hydroxy-3-oxypropyl]amide]

solubility ([1]; pH 5.9, aqueous buffer): ~15 µg/mL (≈ 54.8 µM)
Compound: CC(C(=O)O)c1ccc2c(c1)[nH]c1ccc(Cl)cc12 (stereo not shown) [Drug 6, carprofen]

solubility (physchem; pH 3.7, aqueous buffer): 2 µg/mL (≈ 6.24 µM)
solubility (physchem; pH 7.4, aqueous buffer): 200 µg/mL (≈ 624 µM)
Compound: NC(=O)N1C(=O)/C(=C(\O)c2cccs2)c2cc(Cl)ccc21 [Drug 7, Tenidap]
